The conditions of the data set: Liquid, Vibrating tube method.

Structures are written as SMILES. Numbers after ± are expanded uncertainties.

The values that follow come from the NIST ThermoML archive (doi:10.1016/j.jct.2012.11.011).

Take `CCCCCCCCCC` [decane]: the mass density turned out to be 733.6 ± 0.3 kg/m3 (288.15 K, 100 kPa); 737.2 ± 0.3 kg/m3 (288.15 K, 5000 kPa); 740.7 ± 0.4 kg/m3 (288.15 K, 10000 kPa); 747.2 ± 0.5 kg/m3 (288.15 K, 20000 kPa); 753.2 ± 0.5 kg/m3 (288.15 K, 30000 kPa); 758.9 ± 0.6 kg/m3 (288.15 K, 40000 kPa). The mass density worked out at 726 ± 0.3 kg/m3 (298.15 K, 100 kPa); 730.2 ± 0.3 kg/m3 (298.15 K, 5000 kPa); 733.5 ± 0.4 kg/m3 (298.15 K, 10000 kPa); 740.3 ± 0.5 kg/m3 (298.15 K, 20000 kPa); 746.5 ± 0.5 kg/m3 (298.15 K, 30000 kPa); 752.2 ± 0.6 kg/m3 (298.15 K, 40000 kPa). Further, the mass density worked out at 718.3 ± 0.3 kg/m3 (308.15 K, 100 kPa); 722.4 ± 0.3 kg/m3 (308.15 K, 5000 kPa); 726.2 ± 0.4 kg/m3 (308.15 K, 10000 kPa); 733.4 ± 0.5 kg/m3 (308.15 K, 20000 kPa); 740 ± 0.5 kg/m3 (308.15 K, 30000 kPa); 745.9 ± 0.6 kg/m3 (308.15 K, 40000 kPa).
`CCOC(=O)OCC` [diethyl carbonate]: the mass density is recorded as 980.3 ± 0.2 kg/m3 (288.15 K, 100 kPa); 984.5 ± 0.2 kg/m3 (288.15 K, 5000 kPa); 988.6 ± 0.2 kg/m3 (288.15 K, 10000 kPa); 996.3 ± 0.2 kg/m3 (288.15 K, 20000 kPa); 1003.6 ± 0.2 kg/m3 (288.15 K, 30000 kPa); 1010.5 ± 0.2 kg/m3 (288.15 K, 40000 kPa). Also, the mass density runs as follows: (298.15 K, 100 kPa) 968.9 ± 0.3 kg/m3; (298.15 K, 5000 kPa) 973.8 ± 0.3 kg/m3; (298.15 K, 10000 kPa) 977.8 ± 0.2 kg/m3; (298.15 K, 20000 kPa) 986 ± 0.2 kg/m3; (298.15 K, 30000 kPa) 993.6 ± 0.2 kg/m3; (298.15 K, 40000 kPa) 1000.8 ± 0.2 kg/m3. The mass density (308.15 K, 100 kPa) was 957.7 ± 0.3 kg/m3; the mass density (308.15 K, 5000 kPa) is on record as 962.4 ± 0.3 kg/m3; the mass density (308.15 K, 10000 kPa) is reported as 967.1 ± 0.3 kg/m3; the mass density (308.15 K, 20000 kPa) is recorded as 975.7 ± 0.3 kg/m3; the mass density (308.15 K, 30000 kPa) is recorded as 983.8 ± 0.2 kg/m3; the mass density (308.15 K, 40000 kPa) came out at 991.3 ± 0.2 kg/m3.
`COC(=O)OC` [dimethyl carbonate]: the mass density (288.15 K, 100 kPa) is recorded as 1076.5 ± 0.4 kg/m3; the mass density (288.15 K, 5000 kPa) stood at 1080.6 ± 0.4 kg/m3; the mass density (288.15 K, 10000 kPa) was determined as 1084.8 ± 0.4 kg/m3; the mass density (288.15 K, 20000 kPa) was 1092.8 ± 0.4 kg/m3; the mass density (288.15 K, 30000 kPa) is given as 1100.3 ± 0.5 kg/m3; the mass density (288.15 K, 40000 kPa) is 1107.5 ± 0.5 kg/m3. The mass density was 1062.9 ± 0.4 kg/m3 (298.15 K, 100 kPa); 1068 ± 0.4 kg/m3 (298.15 K, 5000 kPa); 1072.1 ± 0.4 kg/m3 (298.15 K, 10000 kPa); 1080.5 ± 0.4 kg/m3 (298.15 K, 20000 kPa); 1088.5 ± 0.4 kg/m3 (298.15 K, 30000 kPa); 1095.9 ± 0.5 kg/m3 (298.15 K, 40000 kPa). The mass density is, setting by setting: (308.15 K, 100 kPa) 1049.4 ± 0.3 kg/m3; (308.15 K, 5000 kPa) 1054.6 ± 0.4 kg/m3; (308.15 K, 10000 kPa) 1059.4 ± 0.4 kg/m3; (308.15 K, 20000 kPa) 1068.3 ± 0.4 kg/m3; (308.15 K, 30000 kPa) 1076.7 ± 0.4 kg/m3; (308.15 K, 40000 kPa) 1084.5 ± 0.5 kg/m3.
With `CCCCCCCC` [octane], the mass density (288.15 K, 100 kPa) is 706.6 ± 0.3 kg/m3; the mass density (288.15 K, 5000 kPa) was determined as 710.9 ± 0.4 kg/m3; the mass density (288.15 K, 10000 kPa) is listed as 714.7 ± 0.4 kg/m3; the mass density (288.15 K, 20000 kPa) turned out to be 721.7 ± 0.5 kg/m3; the mass density (288.15 K, 30000 kPa) was 728.1 ± 0.6 kg/m3; the mass density (288.15 K, 40000 kPa) is 734.3 ± 0.7 kg/m3. Moreover, the mass density (298.15 K, 100 kPa) worked out at 698.6 ± 0.3 kg/m3; the mass density (298.15 K, 5000 kPa) was 703.4 ± 0.4 kg/m3; the mass density (298.15 K, 10000 kPa) is 707 ± 0.4 kg/m3; the mass density (298.15 K, 20000 kPa) was found to be 714.6 ± 0.5 kg/m3; the mass density (298.15 K, 30000 kPa) amounted to 721.4 ± 0.6 kg/m3; the mass density (298.15 K, 40000 kPa) came out at 727.7 ± 0.7 kg/m3. The mass density is, setting by setting: (308.15 K, 100 kPa) 690.5 ± 0.3 kg/m3; (308.15 K, 5000 kPa) 695 ± 0.4 kg/m3; (308.15 K, 10000 kPa) 699.4 ± 0.4 kg/m3; (308.15 K, 20000 kPa) 707.3 ± 0.5 kg/m3; (308.15 K, 30000 kPa) 714.5 ± 0.6 kg/m3; (308.15 K, 40000 kPa) 720.8 ± 0.7 kg/m3.
